Read-outs that look alike come from different tables or passages of the source.
Key:
[1] = system: mice melanoma cell (B16-F10); assay: In vitro darktoxicity and PDT killing effect (CCK-8), B16-F10; format: cell-based; settings: for PDT anti-cancer activity (in words): light dose of 8 J/cm^2
Description: (§1) Human non-small cell lung cancer cellA549 and mice melanoma cell B16-F10 provided by Cell bank of Shanghai in Chinese Academy of Sciences were selected as cell strains.
(§2) 660 nm semiconductor laser therapeutic equipments manufactured by Baifei biomedical company of Shanghai was selected as a laser light source, with the largest output power of 2 W.
(§3) 1) Cell strains of tumors: culture of human non-small cell lung cancer cell (A549) and mice melanoma cell (B16-F10): frozen cells were taken out of liquid nitrogen, placed in a water bath at […]. […] The medium was renewed once every two days.
(§4) 2) Preparation of reagents: compounds of the present application to be tested and positive control drug Talaporfin were dissolved in a suitable amount of 0.1 M NaOH, adjusted pH to 7.4 by 0.1 M HCl. Normal saline was added to prepare drug stock solution in a suitable concentration.
(§5) 3) Detecting darktoxicity and PDT killing effects to the two tumor cells of compounds to be tested and positive control drug: 100 μL of 5×10^3/mL cell suspension was added into each well of 96-well plate, placed in a incubator at 37° C., 5% CO2 for 24 h. after removing cell medium, fresh mediums containing different concentration of samples were added, opened with three complex holes, and incubated for 24 h at 37° C. and 5% CO2 (volume concentration). After adding fresh medium, no light irradiated (darktoxicity) or 660 nm wavelength laser was used to irradiate (light dose was 8 J/cm^2) (phototoxicity). Cells were incubated for another 24 h. Cell medium containing drugs were removed and fresh medium was added. 200 μL medium containing 10% (v/v) CCK-8 (Dojindo Laboratories, Japan) was added into each well, and incubated for 1.5 h. Microplate reader (Tecan, Switzerland) was used to measure absorbance of each well at a wavelength of 450 nm.

[2] = system: human non-small cell lung cancer cell (A549); assay: In vitro darktoxicity and PDT killing effect (CCK-8), A549; format: cell-based; settings: for PDT anti-cancer activity (in words): light dose of 8 J/cm^2
Description: as §1, §2, §3, §4, §5

[3] = 660 nm laser, light dose 8 J/cm^2, read-out: Phototoxicity (IC50)
[4] = no light irradiated, 24 h drug incubation, read-out: Darktoxicity (IC50)

Structure (SMILES)	Ratio of Darktoxicity and Phototoxicity [1]	IC50 [1, 3]	IC50 [1, 4]	Ratio of Darktoxicity and Phototoxicity [2]	IC50 [2, 3]	IC50 [2, 4]	IC50 ([1]; Mus musculus, light or radiation study, 660 nm laser, light dose 8 J/cm^2, read-out: Phototoxicity (IC50))	IC50 ([1]; Mus musculus, light or radiation study, no light irradiated, 24 h drug incubation, read-out: Darktoxicity (IC50))	IC50 ([2]; Homo sapiens, light or radiation study, 660 nm laser, light dose 8 J/cm^2, read-out: Phototoxicity (IC50))	IC50 ([2]; Homo sapiens, light or radiation study, no light irradiated, 24 h drug incubation, read-out: Darktoxicity (IC50))	PDT anti-cancer activity (in words) [1]	PDT anti-cancer activity (in words) [2]	PDT anti-tumor activity, times that of Talaporfin ([1]; relative to Talaporfin)	ratio of darktoxicity-phototoxicity, times that of Talaporfin ([1]; relative to Talaporfin)	PDT anti-tumor activity, times that of Talaporfin ([2]; relative to Talaporfin)	ratio of darktoxicity-phototoxicity, times that of Talaporfin ([2]; relative to Talaporfin)
CCC1=C(C)c2cc3[nH]c(cc4nc(c(CC(=O)N[C@@H](CCCCN)C(=O)O)c5[nH]c(cc1n2)c(C)c5C(=O)O)[C@@H](CCC(=O)O)[C@@H]4C)c(C)c3C(C)OCCOC (stereo partly drawn) [I22, N-[3-[1-(2-methoxy)ethyoxyl]ethyl-3-devinylchlorine6-15^2-acyl]-L-lysine]	89.24	1.91 µM	170 µM	175.76	1.47 µM	258 µM	–	–	–	–	–	–	–	–	–	–
C=Cc1c(C)c2cc3nc(c(CC(=O)N[C@@H](CC(=O)O)C(=O)O)c4[nH]c(cc5nc(cc1[nH]2)C(C)=C5CC)c(C)c4C(=O)O)[C@@H](CCC(=O)O)[C@@H]3C [Talaporfin, reference compound]	15.81	–	–	31.21	–	–	10.7 µM	170 µM	8.86 µM	277 µM	–	–	–	–	–	–
CCCOC(C)c1c(C)c2cc3nc(c(CC(=O)N[C@@H](CC(=O)O)C(=O)O)c4[nH]c(cc5nc(cc1[nH]2)C(C)=C5CC)c(C)c4C(=O)O)[C@@H](CCC(=O)O)[C@@H]3C (stereo partly drawn) [I2, N-[3-(1-n-propoxyl)ethyl-3-devinylchlorine6-15^2-acyl]-L-aspartic acid]	125.73	1.48 µM	186 µM	>288.46	1.04 µM	> 300 µM	–	–	–	–	–	–	–	–	–	–
CCC1=C(C)c2cc3[nH]c(cc4nc(c(CC(=O)N[C@@H](CCCCN)C(=O)O)c5[nH]c(cc1n2)c(C)c5C(=O)O)C(CCC(=O)O)C4C)c(C)c3C(C)OC (stereo partly drawn) [I19, N^α-[3-(1-methoxy)ethyl-3-devinylchlorine6-15^2-acyl]-L-lysine]	84.41	2.28 µM	192 µM	>156.25	1.92 µM	> 300 µM	–	–	–	–	–	–	–	–	–	–
CCCOC(C)c1c(C)c2cc3nc(c(CC(=O)N[C@@H](CCC(=O)O)C(=O)O)c4[nH]c(cc5nc(cc1[nH]2)C(C)=C5CC)c(C)c4C(=O)O)[C@@H](CCC(=O)O)[C@@H]3C (stereo partly drawn) [I11, N-[3-(1-n-propoxyl)ethyl-3-devinylchlorine6-15^2-acyl]-L-glutamic acid]	–	–	173 µM	–	1.12 µM	278 µM	–	–	–	–	–	–	–	–	–	–
CCC1=C(C)c2cc3[nH]c(cc4nc(c(CC(=O)N[C@@H](CC(=O)OC(C)(C)C)C(=O)OC(C)(C)C)c5[nH]c(cc1n2)c(C)c5C(=O)O)[C@@H](CCC(=O)O)[C@@H]4C)c(C)c3C(C)OCCOC (stereo partly drawn) [I4, N-[3-[1-(2-methoxy)ethyoxyl]ethyl-3-devinylchlorine6-15^2-acyl]-L-aspartic acid di-tert-butyl ester]	113.91	1.61 µM	183 µM	255.18	1.17 µM	299 µM	–	–	–	–	–	–	–	–	–	–
CCC1=C(C)c2cc3[nH]c(cc4nc(c(CC(=O)N[C@@H](CCCCN)C(=O)O)c5[nH]c(cc1n2)c(C)c5C(=O)O)C(CCC(=O)O)C4C)c(C)c3C(C)OCCCCOC (stereo partly drawn) [I25, N-[3-[1-(4-methoxy)butoxy]ethyl-3-devinylchlorine6-15^2-acyl]-L-lysine]	140.15	1.16 µM	163 µM	222.06	1.08 µM	240 µM	–	–	–	–	–	–	–	–	–	–
CCC1=C(C)c2cc3[nH]c(cc4nc(c(CC(=O)N[C@@H](CCC(=O)O)C(=O)O)c5[nH]c(cc1n2)c(C)c5C(=O)O)[C@@H](CCC(=O)O)[C@@H]4C)c(C)c3C(C)OCCOC (stereo partly drawn) [I13, N-[3-[1-(2-methoxy)ethyoxyl]ethyl-3-devinylchlorine6-15^2-acyl]-L-glutamic acid]	92.93	1.72 µM	160 µM	213.90	1.25 µM	267 µM	–	–	–	–	–	–	–	–	–	–
CCCCCCOC(C)c1c(C)c2cc3nc(c(CC(=O)N[C@@H](CCCCN)C(=O)O)c4[nH]c(cc5nc(cc1[nH]2)C(C)=C5CC)c(C)c4C(=O)O)C(CCC(=O)O)C3C (stereo partly drawn) [I21, N-[3-(1-n-hexyloxy)ethyl-3-devinylchlorine6-15^2-acyl]-L-lysine]	171.31	1.05 µM	180 µM	370.30	0.79 µM	293 µM	–	–	–	–	best	best	–	–	–	–
CCC1=C(C)c2cc3[nH]c(cc4nc(c(CC(=O)N[C@@H](CCCCN)C(=O)O)c5[nH]c(cc1n2)c(C)c5C(=O)O)[C@@H](CCC(=O)O)[C@@H]4C)c(C)c3C(C)OCCOCCOC (stereo partly drawn) [I26, N-[3-[1-(2-(2-methoxy)ethyoxyl)ethyoxyl]ethyl-3-devinylchlorine6-15^2-acyl]-L-lysine]	105.20	1.67 µM	176 µM	201.61	1.23 µM	248 µM	–	–	–	–	–	–	–	–	–	–
CCC1=C(C)c2cc3[nH]c(cc4nc(c(CC(=O)N[C@@H](CC(=O)O)C(=O)O)c5[nH]c(cc1n2)c(C)c5C(=O)O)C(CCC(=O)O)C4C)c(C)c3C(C)OCCCCOC (stereo partly drawn) [I7, N-[3-[1-(4-methoxy)butoxy]ethyl-3-devinylchlorine6-15^2-acyl]-L-aspartic acid]	159.38	1.04 µM	166 µM	317.88	0.86 µM	273 µM	–	–	–	–	–	–	–	–	–	–
CCCOC(C)c1c(C)c2cc3nc(c(CC(=O)N[C@@H](CCCCN)C(=O)O)c4[nH]c(cc5nc(cc1[nH]2)C(C)=C5CC)c(C)c4C(=O)O)[C@@H](CCC(=O)O)[C@@H]3C (stereo partly drawn) [I20, N-[3-(1-n-propoxyl)ethyl-3-devinylchlorine6-15^2-acyl]-L-lysine]	92.87	1.75 µM	163 µM	>225.56	1.33 µM	> 300 µM	–	–	–	–	–	–	–	–	–	–
CCC1=C(C)c2cc3[nH]c(cc4nc(c(CC(=O)N[C@@H](CC(=O)O)C(=O)O)c5[nH]c(cc1n2)c(C)c5C(=O)O)C(CCC(=O)O)C4C)c(C)c3C(C)OC (stereo partly drawn) [I1, N-[3-(1-methoxy)ethyl-3-devinylchlorine6-15^2-acyl]-L-aspartic acid]	102.34	2.06 µM	211 µM	>227.27	1.32 µM	> 300 µM	–	–	–	–	–	–	–	–	–	–
CCCCCCOC(C)c1c(C)c2cc3nc(c(CC(=O)N[C@@H](CCC(=O)O)C(=O)O)c4[nH]c(cc5nc(cc1[nH]2)C(C)=C5CC)c(C)c4C(=O)O)C(CCC(=O)O)C3C (stereo partly drawn) [I12, N-[3-(1-n-hexyloxy)ethyl-3-devinylchlorine6-15^2-acyl]-L-glutamic acid]	–	–	–	–	–	–	–	–	–	–	best	best	–	–	–	–
CCC1=C(C)c2cc3[nH]c(cc4nc(c(CC(=O)N[C@@H](CC(=O)O)C(=O)O)c5[nH]c(cc1n2)c(C)c5C(=O)O)[C@@H](CCC(=O)O)[C@@H]4C)c(C)c3C(C)OCCOCCOC (stereo partly drawn) [I8, N-[3-[1-(2-(2-methoxy)ethyoxyl)ethyoxyl]ethyl-3-devinylchlorine6-15^2-acyl]-L-aspartic acid]	122.07	1.43 µM	175 µM	283.98	1.01 µM	287 µM	–	–	–	–	–	–	–	–	–	–
CCCCCCOC(C)c1c(C)c2cc3nc(c(CC(=O)N[C@@H](CC(=O)O)C(=O)O)c4[nH]c(cc5nc(cc1[nH]2)C(C)=C5CC)c(C)c4C(=O)O)[C@@H](CCC(=O)O)[C@@H]3C (stereo partly drawn) [I3, N-[3-(1-n-hexyloxy)ethyl-3-devinylchlorine6-15^2-acyl]-L-aspartic acid]	215.65	0.89 µM	192 µM	438.34	0.65 µM	285 µM	–	–	–	–	best	best	12.07 times	13.64 times	13.63 times	14.04 times
CCC1=C(C)c2cc3[nH]c(cc4nc(c(CC(=O)N[C@@H](CCC(=O)O)C(=O)O)c5[nH]c(cc1n2)c(C)c5C(=O)O)[C@@H](CCC(=O)O)[C@@H]4C)c(C)c3C(C)OCCOCCOC (stereo partly drawn) [I17, N-[3-[1-(2-(2-methoxy)ethyoxyl)ethyoxyl]ethyl-3-devinylchlorine6-15^2-acyl]-L-glutamic acid]	111.04	1.52 µM	169 µM	240.63	1.1 µM	265 µM	–	–	–	–	–	–	–	–	–	–

Reference: patent publication US9951081B1, “Chlorin e6 derivative and pharmaceutically acceptable salt thereof and process for preparing and use of the same” (priority 2016, dated 2018)
